Source: ChEMBL document CHEMBL1147713, “Inhibition of trypsin and urokinase by Cbz-amino(4-guanidinophenyl)methanephosphonate aromatic ester derivatives: the influence of the ester group on their biological activity” (Bioorg Med Chem Lett, 2006)

Tests used:
[1] = target: Urokinase-type plasminogen activator (Homo sapiens, UniProt P00749); test: Inhibition of human uPA by chromogenic assay using Cbz-Val-Gly-Arg-pNA as chromogenic substrate
[2] = Inhibition of bovine trypsin by chromogenic assay using Bzl-L-Arg-pNA as chromogenic substrate; set-up: species or system Bos taurus
[3] = Selectivity for trypsin over uPA by chromogenic assay

| SMILES | IC50 [1] | IC50 ([2]; read-out: IC50) | Ratio IC50 [3] | IC50 [2] |
| --- | --- | --- | --- | --- |
| CC(C)(C)CC(C)(C)c1ccc(OP(=O)(Oc2ccc(C(C)(C)CC(C)(C)C)cc2)C(NC(=O)OCc2ccccc2)c2ccc(NC(=N)N)cc2)cc1 (centres undefined) | 204 nM | 2310 nM | 11.3 |  |
| CC(C)c1ccc(OP(=O)(Oc2ccc(C(C)C)cc2)C(NC(=O)OCc2ccccc2)c2ccc(NC(=N)N)cc2)cc1 (centres undefined) | 208 nM | 61 nM | 0.29 |  |
| CSc1ccc(OP(=O)(Oc2ccc(SC)cc2)C(NC(=O)OCc2ccccc2)c2ccc(NC(=N)N)cc2)cc1 (centres undefined) | 26 nM | 8.7 nM | 0.33 |  |
| CC(C)(C)c1ccc(OP(=O)(Oc2ccc(C(C)(C)C)cc2)C(NC(=O)OCc2ccccc2)c2ccc(NC(=N)N)cc2)cc1 (centres undefined) | 98 nM | 88 nM | 0.9 |  |
| N=C(N)Nc1ccc(C(NC(=O)OCc2ccccc2)P(=O)(Oc2ccccc2)Oc2ccccc2)cc1 (centres undefined) | 532 nM | 112 nM | 0.21 |  |
| Cc1ccc(OP(=O)(Oc2ccc(C)cc2)C(NC(=O)OCc2ccccc2)c2ccc(NC(=N)N)cc2)cc1 (centres undefined) | 370 nM | 176 nM | 0.48 |  |
| N=C(N)Nc1ccc(C(NC(=O)OCc2ccccc2)P(=O)(Oc2ccc3ccccc3c2)Oc2ccc3ccccc3c2)cc1.O=C(O)C(F)(F)F (centres undefined) | 455 nM |  |  | Not Active |
| CCc1ccc(OP(=O)(Oc2ccc(CC)cc2)C(NC(=O)OCc2ccccc2)c2ccc(NC(=N)N)cc2)cc1 (centres undefined) | 7800 nM | 17 nM | 0.002 |  |
| COc1ccc(OP(=O)(Oc2ccc(OC)cc2)C(NC(=O)OCc2ccccc2)c2ccc(NC(=N)N)cc2)cc1 (centres undefined) | 2600 nM | 251 nM | 0.1 |  |
| CS(=O)(=O)c1ccc(OP(=O)(Oc2ccc(S(C)(=O)=O)cc2)C(NC(=O)OCc2ccccc2)c2ccc(NC(=N)N)cc2)cc1 (centres undefined) | 53 nM | 23000 nM | 434 |  |
